Starred links: 1 amine or outer side, 2 acyl side, 3 side chain; linkers in the order of their positions; H or OH if unused. Positions of bridges follow the written chain, without caps; N, C: chain ends. Residues, ends and D or L forms follow the SMILES beside them. *: point of attachment. C20 diacid = O=C(O)CCCCCCCCCCCCCCCCCCC(=O)*; γGlu = O=C(O)[C@H](CCC(=O)[*:2])N[*:1]
What was measured:
Type in all cases: cell-based
[1] = target: T1, rat calcitonin (a) receptor (Rattus norvegicus, UniProt P32214); experiment: Assay (II)b functional cAMP FlashPlate assay, rat calcitonin receptor; conditions: Table 11; read-out: CTa receptor rat EC50
T1 construct: expressed in transfected cells; host or cells: BHK tk'ts 13
T1 sequence (P32214 25-479 isoform P32214-2 limits assumed): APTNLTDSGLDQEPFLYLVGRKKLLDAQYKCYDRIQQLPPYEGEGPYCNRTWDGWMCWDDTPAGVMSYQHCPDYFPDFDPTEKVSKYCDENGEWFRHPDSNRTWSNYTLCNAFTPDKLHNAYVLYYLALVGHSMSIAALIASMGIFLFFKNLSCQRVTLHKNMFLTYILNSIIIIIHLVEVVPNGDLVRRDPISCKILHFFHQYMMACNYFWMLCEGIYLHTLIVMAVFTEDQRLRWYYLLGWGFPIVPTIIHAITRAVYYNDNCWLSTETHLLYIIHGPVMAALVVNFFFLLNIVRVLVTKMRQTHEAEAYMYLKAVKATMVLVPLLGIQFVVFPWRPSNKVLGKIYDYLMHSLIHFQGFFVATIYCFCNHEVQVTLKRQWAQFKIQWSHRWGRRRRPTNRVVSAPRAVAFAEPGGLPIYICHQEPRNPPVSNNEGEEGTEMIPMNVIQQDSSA
How it was run: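 cAMP accumulation in transiently transfected BHK tk'ts 13 cells, 100.000 cells/well, expressing rat calcitonin(a) receptor or its RAMP3 co-expression form (amylin 3(a)): 30 min stimulation with IBMX, 24 hours post-transfection. Readout by competition of cellular versus radiolabelled cAMP in FlashPlates, scintillation counted after 3 h.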

[2] = target: T2, human amylin receptor (amylin 3(a) receptor: human calcitonin receptor + RAMP-3) (Homo sapiens, UniProt O60896+P30988); experiment: Assay (II)a functional CRE-luciferase assay, human amylin receptor; conditions: Table 2; BHK amylin 3(a)-receptor/CRE-luc cells
T2 construct: expressed in transfected cells; host or cells: BHK570
T2 sequence (P30988 25-474): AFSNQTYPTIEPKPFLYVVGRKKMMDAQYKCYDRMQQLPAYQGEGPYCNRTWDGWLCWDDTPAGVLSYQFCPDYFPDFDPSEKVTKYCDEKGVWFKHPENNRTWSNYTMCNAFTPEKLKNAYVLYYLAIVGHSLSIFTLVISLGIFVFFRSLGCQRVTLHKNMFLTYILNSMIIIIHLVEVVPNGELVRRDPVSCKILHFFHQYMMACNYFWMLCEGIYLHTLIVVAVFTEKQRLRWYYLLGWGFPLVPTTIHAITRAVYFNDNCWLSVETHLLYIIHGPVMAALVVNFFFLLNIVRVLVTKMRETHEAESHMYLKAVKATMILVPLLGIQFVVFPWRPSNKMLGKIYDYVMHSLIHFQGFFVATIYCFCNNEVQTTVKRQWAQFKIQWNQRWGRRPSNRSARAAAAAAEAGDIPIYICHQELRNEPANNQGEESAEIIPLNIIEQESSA
T2 sequence (O60896 24-148 partner): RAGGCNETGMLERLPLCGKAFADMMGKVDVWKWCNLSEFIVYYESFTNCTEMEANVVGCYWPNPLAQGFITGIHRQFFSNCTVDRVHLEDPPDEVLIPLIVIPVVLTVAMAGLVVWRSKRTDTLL

[3] = target: T3, human calcitonin receptor (Homo sapiens, UniProt P30988); experiment: Assay (II)a functional CRE-luciferase assay, human calcitonin receptor; conditions: Table 7; human calcitonin (CTa) receptor
T3 construct: expressed in transfected cells; host or cells: BHK570
T3 sequence (P30988 25-474): T2 sequence (P30988 25-474)

CC[C@H](C)[C@H](NC(=O)[C@@H]1CCCN1C(=O)CNC(=O)[C@H](Cc1ccccc1)NC(=O)[C@H](CC(N)=O)NC(=O)[C@H](CC(N)=O)NC(=O)[C@H](CO)NC(=O)[C@H](CO)NC(=O)[C@H](Cc1c[nH]cn1)NC(=O)[C@H](Cc1c[nH]cn1)NC(=O)[C@H](CC(C)C)NC(=O)[C@H](Cc1ccccc1)NC(=O)[C@H](CCC(=O)O)NC(=O)[C@H](C)NC(=O)[C@H](CC(C)C)NC(=O)[C@H](CCCNC(=N)N)NC(=O)[C@H](CCC(N)=O)NC(=O)[C@@H](NC(=O)[C@H](C)NC(=O)[C@@H]1CSSC[C@H](NC(=O)[C@H](Cc2c[nH]cn2)NC(=O)CC[C@H](NC(=O)CCCCCCCCCCCCCCCCCCC(=O)O)C(=O)O)C(=O)N[C@@H](CC(N)=O)C(=O)N[C@@H]([C@@H](C)O)C(=O)N[C@@H](C)C(=O)N[C@@H]([C@@H](C)O)C(=O)N1)[C@@H](C)O)C(=O)N[C@@H](CC(C)C)C(=O)N1CCC[C@H]1C(=O)N1CCC[C@H]1C(=O)N[C@H](C(=O)N[C@@H](CC(N)=O)C(=O)N[C@H](C(=O)NCC(=O)N[C@@H](CO)C(=O)N[C@@H](CC(N)=O)C(=O)N[C@H](C(=O)N[C@@H](Cc1ccc(O)cc1)C(N)=O)[C@@H](C)O)C(C)C)[C@@H](C)O [Example 18, N-alpha-[(S)-4-Carboxy-4-(19-carboxynonadecanoylamino)butyryl]-[His1,Glu14,His17]-pramlintide] ({C20 diacid-γGlu}-HCNTATCATQRLAEFLHHSSNNFGPILPPTNVGSNTY-NH2; disulfide 2-7 (inferred); C-terminus assumed)
EC50 [1]: 1.17 nM | EC50 [2]: 0.131 nM | EC50 [3]: 0.126 nM

CC[C@H](C)[C@H](NC(=O)[C@@H]1CCCN1C(=O)CNC(=O)[C@H](Cc1ccccc1)NC(=O)[C@H](CC(N)=O)NC(=O)[C@H](CC(N)=O)NC(=O)[C@H](CO)NC(=O)[C@H](CO)NC(=O)[C@H](Cc1c[nH]cn1)NC(=O)[C@H](Cc1c[nH]cn1)NC(=O)[C@H](CC(C)C)NC(=O)[C@H](Cc1ccccc1)NC(=O)[C@H](CCC(=O)O)NC(=O)[C@H](C)NC(=O)[C@H](CC(C)C)NC(=O)[C@H](CCCNC(=N)N)NC(=O)[C@H](CCC(N)=O)NC(=O)[C@@H](NC(=O)[C@H](C)NC(=O)[C@@H]1CSSC[C@H](NC(=O)[C@H](Cc2c[nH]cn2)NC(=O)[C@H](Cc2c[nH]cn2)NC(=O)[C@H](Cc2c[nH]cn2)NC(=O)CC[C@H](NC(=O)CCCCCCCCCCCCCCCCCCC(=O)O)C(=O)O)C(=O)N[C@@H](CC(N)=O)C(=O)N[C@@H]([C@@H](C)O)C(=O)N[C@@H](C)C(=O)N[C@@H]([C@@H](C)O)C(=O)N1)[C@@H](C)O)C(=O)N[C@@H](CC(C)C)C(=O)N1CCC[C@H]1C(=O)N1CCC[C@H]1C(=O)N[C@H](C(=O)N[C@@H](CC(N)=O)C(=O)N[C@H](C(=O)NCC(=O)N[C@@H](CO)C(=O)N[C@@H](CCCNC(=N)N)C(=O)N[C@H](C(=O)N[C@@H](Cc1ccc(O)cc1)C(N)=O)[C@@H](C)O)C(C)C)[C@@H](C)O [Example 21, N-alpha-[(S)-4-Carboxy-4-(19-carboxynonadecanoylamino)butyryl]-His-His-[His1,Glu14,His17,Arg35]-pramlintide] ({C20 diacid-γGlu}-HHHCNTATCATQRLAEFLHHSSNNFGPILPPTNVGSRTY-NH2; disulfide 4-9 (inferred))
EC50 [1]: 1.34 nM | EC50 [2]: 0.192 nM | EC50 [3]: 0.429 nM

CC[C@H](C)[C@H](NC(=O)[C@@H]1CCCN1C(=O)CNC(=O)[C@H](Cc1ccccc1)NC(=O)[C@H](CC(N)=O)NC(=O)[C@H](CC(N)=O)NC(=O)[C@H](CO)NC(=O)[C@H](CO)NC(=O)[C@H](Cc1c[nH]cn1)NC(=O)[C@H](Cc1c[nH]cn1)NC(=O)[C@H](CC(C)C)NC(=O)[C@H](Cc1ccccc1)NC(=O)[C@H](CCC(=O)O)NC(=O)[C@H](C)NC(=O)[C@H](CC(C)C)NC(=O)[C@H](CCCNC(=N)N)NC(=O)[C@H](CCC(N)=O)NC(=O)[C@@H](NC(=O)[C@H](C)NC(=O)[C@@H]1CSSC[C@H](NC(=O)[C@H](Cc2c[nH]cn2)NC(=O)[C@H](Cc2c[nH]cn2)NC(=O)[C@H](Cc2c[nH]cn2)NC(=O)CC[C@H](NC(=O)CCCCCCCCCCCCCCCCCCC(=O)O)C(=O)O)C(=O)N[C@@H](CCCNC(=N)N)C(=O)N[C@@H]([C@@H](C)O)C(=O)N[C@@H](C)C(=O)N[C@@H]([C@@H](C)O)C(=O)N1)[C@@H](C)O)C(=O)N[C@@H](CC(C)C)C(=O)N1CCC[C@H]1C(=O)N1CCC[C@H]1C(=O)N[C@H](C(=O)N[C@@H](CC(N)=O)C(=O)N[C@H](C(=O)NCC(=O)N[C@@H](CO)C(=O)N[C@@H](CC(N)=O)C(=O)N[C@H](C(=O)N[C@@H](Cc1ccc(O)cc1)C(N)=O)[C@@H](C)O)C(C)C)[C@@H](C)O [Example 22, N-alpha-[(S)-4-Carboxy-4-(19-carboxynonadecanoylamino)butyryl]-His-His-[His1,Arg3,Glu14,His17]-pramlintide] ({C20 diacid-γGlu}-HHHCRTATCATQRLAEFLHHSSNNFGPILPPTNVGSNTY-NH2; disulfide 4-9 (inferred))
EC50 [1]: 1.29 nM | EC50 [2]: 0.0985 nM | EC50 [3]: 0.157 nM

CC[C@H](C)[C@H](NC(=O)[C@@H]1CCCN1C(=O)CNC(=O)[C@H](Cc1ccccc1)NC(=O)[C@H](CC(N)=O)NC(=O)[C@H](CC(N)=O)NC(=O)[C@H](CO)NC(=O)[C@H](CO)NC(=O)[C@H](Cc1c[nH]cn1)NC(=O)[C@H](Cc1c[nH]cn1)NC(=O)[C@H](CC(C)C)NC(=O)[C@H](Cc1ccccc1)NC(=O)[C@H](CCC(=O)O)NC(=O)[C@H](C)NC(=O)[C@H](CC(C)C)NC(=O)[C@H](CCCNC(=N)N)NC(=O)[C@H](CCC(N)=O)NC(=O)[C@@H](NC(=O)[C@H](C)NC(=O)[C@@H]1CSSC[C@H](NC(=O)[C@H](CCCCN)NC(=O)[C@H](CCC(=O)O)NC(=O)CC[C@H](NC(=O)CCCCCCCCCCCCCCCCCCC(=O)O)C(=O)O)C(=O)N[C@@H](CC(N)=O)C(=O)N[C@@H]([C@@H](C)O)C(=O)N[C@@H](C)C(=O)N[C@@H]([C@@H](C)O)C(=O)N1)[C@@H](C)O)C(=O)N[C@@H](CC(C)C)C(=O)N1CCC[C@H]1C(=O)N1CCC[C@H]1C(=O)N[C@H](C(=O)N[C@@H](CC(N)=O)C(=O)N[C@H](C(=O)NCC(=O)N[C@@H](CO)C(=O)N[C@@H](CC(N)=O)C(=O)N[C@H](C(=O)N[C@@H](Cc1ccc(O)cc1)C(N)=O)[C@@H](C)O)C(C)C)[C@@H](C)O [Example 26, N-alpha-[(S)-4-Carboxy-4-(19-carboxynonadecanoylamino)butyryl]-Glu-[Glu14,His17]-pramlintide] ({C20 diacid-γGlu}-EKCNTATCATQRLAEFLHHSSNNFGPILPPTNVGSNTY-NH2; disulfide 3-8 (inferred); C-terminus assumed)
EC50 [1]: 1.39 nM | EC50 [2]: 0.13 nM | EC50 [3]: 0.214 nM

CC[C@H](C)[C@H](NC(=O)[C@@H]1CCCN1C(=O)CNC(=O)[C@H](Cc1ccccc1)NC(=O)[C@H](CC(N)=O)NC(=O)[C@H](CC(N)=O)NC(=O)[C@H](CO)NC(=O)[C@H](CO)NC(=O)[C@H](Cc1c[nH]cn1)NC(=O)[C@H](Cc1c[nH]cn1)NC(=O)[C@H](CC(C)C)NC(=O)[C@H](Cc1ccccc1)NC(=O)[C@H](CCC(=O)O)NC(=O)[C@H](C)NC(=O)[C@H](CC(C)C)NC(=O)[C@H](CCCNC(=N)N)NC(=O)[C@H](CCC(N)=O)NC(=O)[C@@H](NC(=O)[C@H](C)NC(=O)[C@@H]1CSSC[C@H](NC(=O)[C@H](CCCCN)NC(=O)CC[C@H](NC(=O)CCCCCCCCCCCCCCCCCCC(=O)O)C(=O)O)C(=O)N[C@@H](CC(N)=O)C(=O)N[C@@H]([C@@H](C)O)C(=O)N[C@@H](C)C(=O)N[C@@H]([C@@H](C)O)C(=O)N1)[C@@H](C)O)C(=O)N[C@@H](CC(C)C)C(=O)N1CCC[C@H]1C(=O)N1CCC[C@H]1C(=O)N[C@H](C(=O)N[C@@H](CC(N)=O)C(=O)N[C@H](C(=O)NCC(=O)N[C@@H](CO)C(=O)N[C@@H](CC(N)=O)C(=O)N[C@H](C(=O)N[C@@H](Cc1ccc(O)cc1)C(N)=O)[C@@H](C)O)C(C)C)[C@@H](C)O [Example 27, N-alpha-[(S)-4-Carboxy-4-(19-carboxynonadecanoylamino)butyryl]-[Glu14,His17]-pramlintide] ({C20 diacid-γGlu}-KCNTATCATQRLAEFLHHSSNNFGPILPPTNVGSNTY-NH2; disulfide 2-7 (inferred))
EC50 [1]: 0.539 nM | EC50 [2]: 0.121 nM | EC50 [3]: 0.107 nM

Source: US8722849B2, “Polypeptides” (Novo Nordisk A/S, priority 2011, dated 2014)
